We go through 15 compounds from patent publication US12441768B2, “Compositions and methods for treating endometriosis” (EndoMet Biosciences, Inc., priority 2018, dated 2025).

For one data set, the target named is T1, β-catenin (Homo sapiens, UniProt P35222).
T1 sequence (P35222 1-781): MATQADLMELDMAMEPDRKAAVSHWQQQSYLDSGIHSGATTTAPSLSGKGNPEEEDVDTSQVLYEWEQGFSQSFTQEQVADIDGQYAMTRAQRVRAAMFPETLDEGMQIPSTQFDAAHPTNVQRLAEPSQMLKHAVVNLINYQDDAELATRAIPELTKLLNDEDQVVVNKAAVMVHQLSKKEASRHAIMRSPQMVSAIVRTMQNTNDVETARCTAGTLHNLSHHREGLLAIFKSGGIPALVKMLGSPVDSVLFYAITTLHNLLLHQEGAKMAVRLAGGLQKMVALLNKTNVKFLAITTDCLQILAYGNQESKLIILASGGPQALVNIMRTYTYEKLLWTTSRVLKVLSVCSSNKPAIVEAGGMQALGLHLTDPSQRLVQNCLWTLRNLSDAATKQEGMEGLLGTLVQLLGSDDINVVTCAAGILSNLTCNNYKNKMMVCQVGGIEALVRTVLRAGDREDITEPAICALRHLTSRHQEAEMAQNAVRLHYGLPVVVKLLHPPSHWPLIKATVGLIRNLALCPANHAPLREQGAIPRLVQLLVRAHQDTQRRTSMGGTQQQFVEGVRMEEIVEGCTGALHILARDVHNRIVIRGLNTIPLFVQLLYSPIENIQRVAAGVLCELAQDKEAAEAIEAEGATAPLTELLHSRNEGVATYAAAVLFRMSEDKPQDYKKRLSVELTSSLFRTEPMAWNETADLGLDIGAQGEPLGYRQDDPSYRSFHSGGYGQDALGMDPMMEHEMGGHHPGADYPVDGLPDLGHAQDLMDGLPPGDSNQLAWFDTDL
The data set is described as follows: KD50 measurement using competitive fluorescence polarization (FP) with labelled TCF4. It counts as binding. The following applies: fluorescence polarization, β-catenin; for Kd: read-out: β-Cat FP KD. Put shortly: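 5 nM labelled TCF4 was combined with 100 nM β-catenin at room temperature, then inhibitor was titrated in serial dilutions from 10 nM to 30 uM. Polarization was read at excitation 470 nm, emission 520 nm; displacement lowers the signal. Three independent experiments.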
Background: Fluorescence polarisation rises when a labelled molecule tumbles more slowly, as on binding a larger partner.

For data set [1] the following is noted: % Viability non-Wnt responsive cells.
Data set [2] has as its target Wnt-responsive promoter (TCF/LEF). The data set is described as follows: Wnt-dependent luciferase reporter assay. It is filed as cell-based, murine. The method, boiled down:
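EC50 (uM) derived from inhibition of luminescence in Wnt3a-stimulated murine 3T3 cells expressing luciferase under a TCF/LEF promoter, with peptides added across a concentration range and vehicle as control.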

Where a SMILES comes first, the peptide text is derived from it.

In general, Kd refers to the concentration at which binding is half-saturated. By viability is commonly meant a read-out of living cells in per cent, often relative to untreated cells. Broadly, the EC50 is the concentration giving half of the maximal effect. Low values mean greater potency, high ones weaker potency. Regarding `CC[C@H](C)[C@@H]1NC(=O)[C@H](CC(C)C)NC(=O)[C@H](Cc2ccccc2)NC(=O)[C@H](Cc2c[nH]c3ccccc23)NC(=O)[C@@H](N)CCCCNC(=O)CC[C@@H](C(=O)O)NC(=O)[C@H](Cc2c[nH]c3ccccc23)NC(=O)[C@H](C)NC(=O)[C@H](CO)NC1=O` [compound 183] (HELM PEPTIDE1{K.W.F.L.I.S.A.W.E}$PEPTIDE1,PEPTIDE1,1:R3-9:R3$$$V2.0), on β-catenin, the “β-Cat FP Hill slope” value was determined as 0.7 and the Kd is 1 to 10 µM. Also, the viability in data set [1] is 97%. Moreover, the half-maximal effective concentration (EC50) in data set [2] is below 7.5 µM.
The like results for `CC[C@H](C)[C@H](NC(=O)[C@H](CC(C)C)NC(=O)[C@@H](NC(=O)[C@H](Cc1c[nH]c2ccccc12)NC(=O)[C@@H](N)CCCNC(=N)N)[C@@H](C)CC)C(=O)N[C@@H](CS)C(=O)N[C@@H](Cc1ccccc1)C(=O)N[C@@H](Cc1c[nH]c2ccccc12)C(=O)NCC(=O)O` [compound 119] (H-RWILICFWG-OH) were, in that order, 0.7, 1 to 10 µM, 143% and 7.5 to 15 µM.
The like results for `CC[C@H](C)[C@H](NC(=O)[C@H](CC(C)C)NC(=O)[C@H](Cc1ccccc1)NC(=O)[C@H](Cc1c[nH]c2ccccc12)NC(C)=O)C(=O)N[C@@H](C)C(=O)N[C@@H](Cc1ccccc1)C(=O)N[C@@H](Cc1c[nH]c2ccccc12)C(=O)NCC(=O)O` [compound 196] (Ac-WFLIAFWG-OH) were, in that order, 2.58, 0.4 to 1 µM, 105% and below 7.5 µM.
With `CC[C@H](C)[C@@H]1NC(=O)[C@H](CC(C)C)NC(=O)[C@H](Cc2ccccc2)NC(=O)[C@H](Cc2c[nH]c3ccccc23)N(C)C(=O)[C@H](CCSC)NC(=O)[C@H](CCCNC(=N)N)NC(=O)[C@H]([C@@H](C)CC)NC(=O)[C@H](CCSC)NC(=O)[C@@H](N)CCCCNC(=O)CCCCCCCNC(=O)CNC(=O)[C@H](Cc2c[nH]c3ccccc23)NC(=O)[C@H](Cc2ccccc2)NC(=O)[C@H](CO)NC1=O` [compound 21] (HELM PEPTIDE1{K.M.I.R.M.[meW].F.L.I.S.F.W.G.[O=C(CCCCCCCN[*:1])[*:2]]}$PEPTIDE1,PEPTIDE1,1:R3-14:R2$$$V2.0), the Kd on β-catenin was above 30 µM. Besides, the viability in data set [1] amounted to 98.7%. For the same compound, the EC50 in data set [2] is above 30 µM.
As to `CC[C@H](C)[C@H](NC(=O)[C@H](CC(C)C)NC(=O)[C@H](Cc1ccccc1)NC(=O)[C@H](Cc1c[nH]c2ccccc12)NC(=O)[C@H](CCSC)NC(=O)[C@H](CCCNC(=N)N)NC(=O)[C@H](CO)NC(=O)[C@@H](N)CCSC)C(=O)N[C@@H](CO)C(=O)N[C@@H](CC(C)C)C(=O)N[C@@H](Cc1c[nH]c2ccccc12)C(=O)NCC(=O)O` [compound 68] (H-MSRMWFLISLWG-OH), the Kd on β-catenin was above 30 µM. The viability in data set [1] came to 91.2%. In data set [2], the EC50 lay in the range of 7.5 to 15 µM.
Regarding `CC[C@H](C)[C@H](NC(=O)[C@H](CC(C)C)NC(=O)[C@H](Cc1ccccc1)NC(=O)[C@H](Cc1c[nH]c2ccccc12)NC(=O)[C@H](CCSC)NC(=O)[C@H](CCCNC(=N)N)NC(=O)[C@H](CO)NC(=O)[C@@H](N)CCSC)C(=O)N[C@@H](CO)C(=O)N[C@@H](Cc1ccccc1)C(=O)N[C@@H](CCCNC(=N)N)C(=O)NCC(=O)O` [compound 69] (H-MSRMWFLISFRG-OH), at β-catenin, the “β-Cat FP Hill slope” value was determined as 1.64 and the Kd is below 0.4 µM. In addition, in data set [1], the viability worked out at 99.7%. The EC50 in data set [2] was above 30 µM.
Consider `CC[C@H](C)[C@H](NC(=O)[C@H](CC(C)C)NC(=O)[C@H](Cc1ccccc1)NC(=O)[C@H](Cc1c[nH]c2ccccc12)NC(=O)[C@H](Cc1c[nH]cn1)NC(=O)[C@H](CCCNC(=N)N)NC(=O)[C@H](CO)NC(=O)[C@@H](N)Cc1c[nH]c2ccccc12)C(=O)N[C@@H](CO)C(=O)N[C@@H](Cc1ccccc1)C(=O)N[C@@H](Cc1c[nH]c2ccccc12)C(N)=O` [compound 91] (H-WSRHWFLISFW-NH2), for which, on β-catenin, the Kd is above 30 µM. Besides, in data set [1], the viability stood at 84.6%. The compound further gave a concentration for a half-maximal effect (EC50) in data set [2] above 30 µM.
As to `CC[C@H](C)[C@H](NC(=O)[C@H](CC(C)C)NC(=O)[C@H](Cc1ccccc1)NC(=O)[C@@H](N)Cc1c[nH]c2ccccc12)C(=O)N[C@@H](CO)C(=O)N[C@@H](Cc1ccc(O)cc1)C(=O)N[C@@H](Cc1c[nH]c2ccccc12)C(=O)O` [compound 109] (H-WFLISYW-OH), at β-catenin, the “β-Cat FP Hill slope” value is 3 and the equilibrium dissociation constant (Kd) lay within 1 to 10 µM. In addition, the viability in data set [1] worked out at 103%. Moreover, the EC50 in data set [2] was in the range of 7.5 to 15 µM.
Regarding `CSCC[C@H](NC(=O)[C@H](CCCNC(=N)N)NC(=O)[C@H](CO)NC(=O)[C@@H](N)CCSC)C(=O)N[C@@H](Cc1c[nH]c2ccccc12)C(=O)N[C@@H](Cc1ccccc1)C(=O)N[C@@H](CC(C)C)C(=O)N[C@@H](CC(N)=O)C(=O)N[C@@H](CO)C(=O)N[C@@H](Cc1ccccc1)C(=O)N[C@@H](Cc1c[nH]c2ccccc12)C(=O)NCC(=O)O` [compound 70] (H-MSRMWFLNSFWG-OH), the Kd on β-catenin was above 30 µM. The viability in data set [1] was 98.5%. In addition, the EC50 in data set [2] was above 30 µM.
Regarding `CC[C@H](C)[C@H](NC(=O)[C@H](CC(C)C)NC(=O)[C@@H](NC(=O)[C@H](Cc1c[nH]c2ccccc12)NC(=O)[C@H](CCSC)NC(=O)C(C)(C)C)[C@@H](C)CC)C(=O)N[C@@H](CO)C(=O)N[C@@H](Cc1ccccc1)C(=O)N[C@@H](Cc1c[nH]c2ccccc12)C(=O)NCC(=O)O` [compound 225] (HELM PEPTIDE1{[CC(C)(C)C(=O)[*:2]].M.W.I.L.I.S.F.W.G}$$$$V2.0), at β-catenin, the “β-Cat FP Hill slope” value is 0.7 and the Kd lay within 0.4 to 1 µM. Further, the viability in data set [1] came to 101%. The same compound had an EC50 in data set [2] below 7.5 µM.
As to `CC[C@H](C)[C@H](NC(=O)[C@H](CC(C)C)NC(=O)[C@H](Cc1ccccc1)NC(=O)[C@H](Cc1c[nH]c2ccccc12)NC(=O)[C@@H](N)CCSC)C(=O)N[C@@H](CS)C(=O)N[C@@H](Cc1cn(C)cn1)C(=O)N[C@@H](Cc1c[nH]c2ccccc12)C(=O)NCC(=O)O` [compound 140] (HELM PEPTIDE1{M.W.F.L.I.C.[Cn1cnc(C[C@H](N[*:1])C(=O)[*:2])c1].W.G}$$$$V2.0), the “β-Cat FP Hill slope” value at β-catenin was 0.7. For the same compound, the viability in data set [1] was determined as 102%. For the same compound, the EC50 in data set [2] lay within 15 to 22.5 µM.
Consider `CC[C@H](C)[C@H](NC(=O)[C@H](CC(C)C)NC(=O)[C@H](Cc1c[nH]c2ccccc12)NC(=O)[C@H](Cc1c[nH]c2ccccc12)NC(=O)[C@H](CCSC)NC(=O)[C@H](CCCNC(=N)N)NC(=O)[C@H](CO)NC(=O)[C@@H](N)CCSC)C(=O)N[C@@H](CO)C(=O)N[C@@H](Cc1ccccc1)C(=O)N[C@@H](Cc1c[nH]c2ccccc12)C(N)=O` [compound 80] (H-MSRMWWLISFW-NH2), for which the dissociation constant Kd at β-catenin was above 30 µM. For the same compound, the viability in data set [1] was determined as 101%. In data set [2], this compound registered an EC50 above 30 µM.
For `CC[C@H](C)[C@H](NC(=O)[C@H](CC(C)C)NC(=O)[C@@H](NC(=O)[C@H](Cc1c[nH]c2ccccc12)NC(=O)[C@H](CCSC)NC(=O)[C@@H](N)CCCCN)[C@@H](C)CC)C(=O)N[C@@H](CS)C(=O)N[C@@H](Cc1ccccc1)C(=O)N[C@@H](Cc1c[nH]c2ccccc12)C(=O)NCC(=O)O` [compound 113] (H-KMWILICFWG-OH), on β-catenin, the “β-Cat FP Hill slope” value was 0.7 and the Kd lay in the range of 1 to 10 µM. Also, the viability in data set [1] came out at 102%. Besides, the EC50 in data set [2] is above 30 µM.
For `CC[C@H](C)[C@@H]1NC(=O)[C@H](CC(C)C)NC(=O)[C@H](Cc2ccccc2)NC(=O)[C@H](Cc2c[nH]c3ccccc23)NC(=O)[C@@H](NC(C)=O)CCCCNC(=O)CC[C@@H](C(=O)O)NC(=O)[C@H](Cc2c[nH]c3ccccc23)NC(=O)[C@H](Cc2ccccc2)NC(=O)[C@H](C)NC1=O` [compound 200] (HELM PEPTIDE1{[ac].K.W.F.L.I.A.F.W.E}$PEPTIDE1,PEPTIDE1,2:R3-10:R3$$$V2.0), at β-catenin, the “β-Cat FP Hill slope” value is recorded as 0.7 and the Kd fell in the range of 1 to 10 µM. Moreover, the viability in data set [1] stood at 81.4%. Further, the EC50 in data set [2] is below 7.5 µM.
With `CC[C@H](C)[C@H](NC(=O)[C@H](CC(C)C)NC(=O)[C@H](Cc1ccccc1)NC(=O)[C@H](Cc1c[nH]c2ccccc12)NC(=O)[C@H](CCSC)NC(=O)[C@H](CCCNC(=N)N)NC(=O)[C@H](CO)NC(=O)[C@@H](N)CCSC)C(=O)N[C@@H](CO)C(=O)N[C@@H](Cc1ccccc1)C(=O)N[C@@H](Cc1c[nH]c2ccccc12)C(=O)NCC(=O)O` [compound 41] (H-MSRMWFLISFWG-OH), the Kd on β-catenin was above 30 µM. Besides, the viability in data set [1] was found to be 96.1%. In addition, the EC50 in data set [2] is below 7.5 µM.
